According to the Deep4Chem optical property database:
Several values for one entry are separate records, joined by “and”; a condition that tells them apart may be missing. Identical values can stand only once. Blank lines part the entries; values can stand above or below the compound they belong to.

Test: photoluminescence quantum yield (fraction); solvent given as SMILES

- photoluminescence quantum yield (in C1COCCO1): 0.7
- photoluminescence quantum yield (in CC#N): 0.75
- photoluminescence quantum yield (in CO): 0.58
Compound: CN(C)c1ccc(/C=C/C=C/C2=NC3C(=O)NC(N)=NC3N2[C@H]2C[C@H](O)[C@@H](CO)O2)cc1 (stereo not given in full)

- photoluminescence quantum yield (in ClCCl): 0.99
Compound: COc1ccc(C2=Cc3ccccc3[Si]2(c2ccccc2)c2ccccc2)cc1

Compound: CC(C)(C)c1ccc(N(c2ccc(C(C)(C)C)cc2)c2ccc(S(=O)(=O)c3ccc(N(c4ccc(C(C)(C)C)cc4)c4ccc(C(C)(C)C)cc4)cc3)cc2)cc1
- photoluminescence quantum yield (in Cc1ccccc1): 0.65

Compound: CN(C)c1ccc(C(=O)Nc2ccc([N+](=O)[O-])cc2)cc1
- photoluminescence quantum yield (in C1CCCCC1): 0.0001
- photoluminescence quantum yield (in C1CCOC1): 0.0003
- photoluminescence quantum yield (in CC#N): 0.0002
- photoluminescence quantum yield (in CCOCC): 0.0006

- photoluminescence quantum yield (in ClC(Cl)Cl): 0.16
Compound: COc1ccc(-c2nc(-c3ccccc3)c(N(c3ccccc3)c3ccccc3)s2)cc1

Compound: O=Cc1cc(O)ccc1O
- photoluminescence quantum yield (in C1CCOC1): 0.0001
- photoluminescence quantum yield (in C1COCCO1): 0.0001
- photoluminescence quantum yield (in CC#N): 0.0001
- photoluminescence quantum yield (in CC(C)=O): 0.01
- photoluminescence quantum yield (in CCCO): 0.03
- photoluminescence quantum yield (in CCO): 0.04
- photoluminescence quantum yield (in CN(C)C=O): 0.06
- photoluminescence quantum yield (in CN(C)P(=O)(N(C)C)N(C)C): 0.14
- photoluminescence quantum yield (in CNC=O): 0.14
- photoluminescence quantum yield (in CO): 0.0001
- photoluminescence quantum yield (in CS(C)=O): 0.17
- photoluminescence quantum yield (in NC=O): 0.07

- photoluminescence quantum yield (in ClCCl): 0.28
Compound: C(#Cc1cccc2ccccc12)c1ncc(-c2ccccc2)o1

- photoluminescence quantum yield (in CS(C)=O): 0.88
Compound: Cc1cccc2cc(-c3cc4cccc(C)c4oc3=O)oc12

- photoluminescence quantum yield (in ClCCl): 0.35
Compound: C(=C\c1ncc(-c2ccc(OCc3ccccc3)c(OCc3ccccc3)c2)o1)/c1cccc(N2CCCC2)c1

- photoluminescence quantum yield (in C1CCCCC1): 0.39
- photoluminescence quantum yield (in CC#N): 0.34
- photoluminescence quantum yield (in CO): 0.33
- photoluminescence quantum yield (in ClCCl): 0.37
Compound: COc1c2ccccc2c(OC)c2c1c1cc(F)ccc1n2C

- photoluminescence quantum yield (in ClCCl): 0.52
Compound: COc1ccc2cc(/C=C/c3nc(/C=C/c4ccc(N(C)C)cc4)cc(/C=C/c4ccc(N(C)C)cc4)n3)ccc2c1

- photoluminescence quantum yield (in ClCCl): 0.71
Compound: O=c1c2cccc3cccc(c32)c2nc3ccccc3n12

- photoluminescence quantum yield (in ClC(Cl)Cl): 0
Compound: O=CC1=Cc2cocc2C=C(C=O)C1

- photoluminescence quantum yield (in C1CCOC1): 0.0077
Compound: C[P+](c1c2ccccc2cc2ccccc12)(c1c2ccccc2cc2ccccc12)c1c2ccccc2cc2ccccc12

- photoluminescence quantum yield (in C1COCCO1): 0.1
Compound: c1ccc(-c2cc(-c3ccccc3)cc(-c3ccccc3)c2)cc1

- photoluminescence quantum yield (in ClCCl): 0.15
Compound: CN(C)c1ccc(/C=C/c2ccncn2)cc1

- photoluminescence quantum yield (in ClC(Cl)Cl): 0.14
- photoluminescence quantum yield (in ClCCl): 0.217
Compound: c1ccc(-c2nc(-c3ccccc3)n3ccccc23)cc1

- photoluminescence quantum yield (in c1cc(-n2c3ccccc3c3ccccc32)cc(-n2c3ccccc3c3ccccc32)c1): 0.724
Compound: O=c1c2ccccc2n2c3ccccc3c(=O)c3cccc1c32

Compound: CCCCCCCCCCC(CCCCCCCCCC)Cn1c2cc(-c3ccc(C(C)(C)C)cc3)c3cccc4c5ccc6c7cc(-c8cc(C(C)(C)C)cc(C(C)(C)C)c8)n8c7c(c7cc1c(c5c76)c2c34)=C1C=CC(c2cc(C(C)(C)C)cc(C(C)(C)C)c2)=[N+]1[B-]8(F)F
- photoluminescence quantum yield (in Cc1ccccc1): 0.008

Compound: CC1=[N+]2C(=C(c3ccc(-c4c5ccccc5c(-c5ccccc5)c5ccccc45)cc3)c3ccc(C)n3[B-]2(F)F)C=C1
- photoluminescence quantum yield (in CC#N): 0.002
- photoluminescence quantum yield (in CCCCCC): 0.204
- photoluminescence quantum yield (in CCO): 0.037
- photoluminescence quantum yield (in CN(C)C=O): 0.002
- photoluminescence quantum yield (in Cc1ccccc1): 0.259
- photoluminescence quantum yield (in ClCCl): 0.027

- photoluminescence quantum yield (in C1CCOC1): 0.72
Compound: CC(C)(C)c1ccc(/C=C/c2ccc(N(c3ccc(/C=C/c4ccc(C(C)(C)C)cc4)cc3)c3ccc(-c4nc5ccccc5nc4-c4ccc(N(c5ccc(/C=C/c6ccc(C(C)(C)C)cc6)cc5)c5ccc(/C=C/c6ccc(C(C)(C)C)cc6)cc5)cc4)cc3)cc2)cc1

- photoluminescence quantum yield (in CS(C)=O): 0.83
Compound: Cc1ccc2oc(-c3cc4cc(C)ccc4oc3=O)cc2c1

Compound: O=C1/C(=C\c2ccc3oc4ccccc4c3c2)S(=O)(=O)c2ccccc21
- photoluminescence quantum yield (in C1CCOC1): 0.037
- photoluminescence quantum yield (in C1COCCO1): 0.047
- photoluminescence quantum yield (in CC#N): 0.041
- photoluminescence quantum yield (in CC(C)=O): 0.055
- photoluminescence quantum yield (in CCOC(C)=O): 0.048
- photoluminescence quantum yield (in CN(C)C=O): 0.192
- photoluminescence quantum yield (in CO): 0.025
- photoluminescence quantum yield (in CS(C)=O): 0.209
- photoluminescence quantum yield (in Cc1ccccc1): 0.116
- photoluminescence quantum yield (in ClC(Cl)Cl): 0.036
- photoluminescence quantum yield (in ClCCl): 0.092

- photoluminescence quantum yield (in C1CCOC1): 0.0016
Compound: C1=Cc2ccccc2C(=Cc2ccc(-c3cc(-c4ccc(C=C5c6ccccc6C=Cc6ccccc65)cc4)c(-c4ccc(C=C5c6ccccc6C=Cc6ccccc65)cc4)cc3-c3ccc(C=C4c5ccccc5C=Cc5ccccc54)cc3)cc2)c2ccccc21

- photoluminescence quantum yield (in CO): 0.2
Compound: Cc1ccc(-c2nc(-c3ccc(O)cc3)[nH]c2-c2ccc(C)cc2)cc1

Compound: COC(=O)/C(C#N)=c1\s/c(=c2/s/c(=C(/C#N)C(=O)OC)c3cc(-c4ccc5c(c4)C(C)(C)c4ccccc4-5)sc23)c2sc(-c3ccc4c(c3)C(C)(C)c3ccccc3-4)cc12
- photoluminescence quantum yield (in Cc1ccccc1): 0.531

- photoluminescence quantum yield (in O): 0.26
Compound: O=S(=O)([O-])c1ccc([O-])c2ccccc12

Compound: COc1ccc(OC)c(C=O)c1
- photoluminescence quantum yield (in C1CCOC1): 0.0001
- photoluminescence quantum yield (in C1COCCO1): 0.0001
- photoluminescence quantum yield (in CC#N): 0.0001
- photoluminescence quantum yield (in CC(C)=O): 0.01
- photoluminescence quantum yield (in CCCO): 0.31
- photoluminescence quantum yield (in CCO): 0.26
- photoluminescence quantum yield (in CN(C)C=O): 0.0001
- photoluminescence quantum yield (in CN(C)P(=O)(N(C)C)N(C)C): 0.0001
- photoluminescence quantum yield (in CNC=O): 0.11
- photoluminescence quantum yield (in CO): 0.22
- photoluminescence quantum yield (in CS(C)=O): 0.04
- photoluminescence quantum yield (in ClC(Cl)Cl): 0.01
- photoluminescence quantum yield (in NC=O): 0.48

- photoluminescence quantum yield (in C1CCOC1): 0.65
- photoluminescence quantum yield (in CC#N): 0.26
- photoluminescence quantum yield (in CCOC(C)=O): 0.58
- photoluminescence quantum yield (in CN(C)C=O): 0.32
- photoluminescence quantum yield (in ClCCl): 0.5
Compound: CCn1c2ccc(/C=C/c3ccc4c(c3)c3cc(-c5nc6ccccc6s5)ccc3n4CC)cc2c2cc(-c3nc4ccccc4s3)ccc21

- photoluminescence quantum yield (in C1CCCCC1): 0.26
Compound: COc1ccc2c3c(c4ccc(OC)cc4c2c1)C(C)(C)c1c-3ccc2ccccc12

- photoluminescence quantum yield (in ClCCl): 0.87
Compound: COc1ccccc1C1=[N+]2C(=C(c3ccccc3)c3c4c(c(-c5ccccc5OC)n3[B-]2(F)F)C2C=CC4CC2)C2=C1C1C=CC2CC1 (stereo not given)

- photoluminescence quantum yield (in C1COCCO1): 0.949
- photoluminescence quantum yield (in CS(C)=O): 0.012
Compound: O=C1/C(=C2\Sc3ccc(S(=O)(=O)Cl)cc3C2=O)Sc2ccc(S(=O)(=O)Cl)cc21

- photoluminescence quantum yield (in C1CCCCC1): 0.92
Compound: CCCC1(CCC)c2cc(-c3ccc(C(C)(C)CC)cc3)ccc2-c2ccc(-c3ccc(C(C)(C)CC)cc3)cc21

Compound: O=C1CCCC2=C1CC1=C(CCCC1=O)N2NC(=O)c1ccccc1
- photoluminescence quantum yield (in C1CCOC1): 0.33
- photoluminescence quantum yield (in CC#N): 0.46
- photoluminescence quantum yield (in CC(C)=O): 0.42
- photoluminescence quantum yield (in CCCCCO): 0.42
- photoluminescence quantum yield (in CO): 0.34
- photoluminescence quantum yield (in ClC(Cl)Cl): 0.62
- photoluminescence quantum yield (in ClCCl): 0.31

- photoluminescence quantum yield (in C1CCCCC1): 0.36
- photoluminescence quantum yield (in C1CCOC1): 0.21
- photoluminescence quantum yield (in CC#N): 0.13
- photoluminescence quantum yield (in ClC(Cl)Cl): 0.2
- photoluminescence quantum yield (in c1ccccc1): 0.3
Compound: Cc1cc(C)c(B(c2c(C)cc(C)cc2C)c2cc3cc(N(C)C)c4ccccc4c3c3c2ccc2ccccc23)c(C)c1

- photoluminescence quantum yield (in CCO): 0.52
- photoluminescence quantum yield (in ClC(Cl)Cl): 0.12
Compound: COc1ccc2c(-c3nc(-c4cccc(C)c4)no3)cc(=O)oc2c1

Compound: c1ccc(-c2nc(-c3ccccc3)nc(-c3ccc(-n4c5ccccc5c5cc6c(cc54)C4c5ccccc5C6c5ccccc54)cc3)n2)cc1
- photoluminescence quantum yield (in Cc1ccccc1): 0.77
- photoluminescence quantum yield (in O=P(c1ccccc1)(c1ccccc1)c1ccccc1Oc1ccccc1P(=O)(c1ccccc1)c1ccccc1): 0.4

- photoluminescence quantum yield (in CC#N): 0.02
- photoluminescence quantum yield (in CCO): 0.09
- photoluminescence quantum yield (in CN(C)C=O): 0.1
- photoluminescence quantum yield (in CO): 0.3
- photoluminescence quantum yield (in CS(C)=O): 0.17
- photoluminescence quantum yield (in ClC(Cl)Cl): 0.48
- photoluminescence quantum yield (in ClCCl): 0.25
Compound: COC(=O)c1cc(=O)n(C)c2cc(-c3cc4c5c(c3)CCCN5CCC4)sc12

- photoluminescence quantum yield (in ClC(Cl)Cl): 0.41 and 0.408
Compound: CC(C)(C)n1c(=O)c2cc3ccc4cccc5ccc(c2c1=O)c3c45

Compound: C#CC1CN2CCC1CC2[C@@H](O)c1ccnc2ccc(OC)cc12 (stereo not given in full)
- photoluminescence quantum yield (in C1CCOC1): 0.063
- photoluminescence quantum yield (in CC#N): 0.008
- photoluminescence quantum yield (in CCCC#N): 0.032
- photoluminescence quantum yield (in Cc1ccccc1): 0.023
- photoluminescence quantum yield (in ClCCl): 0.033

- photoluminescence quantum yield (in ClC(Cl)Cl): 0.724
Compound: CCCCCCCCCCCCOc1cc2c3c(ccc4c5c(OCCCCCCCCCCCC)cc6c7c(ccc(c1c34)c75)C(=O)N(C1CCCCC1)C6=O)C(=O)N(C1CCCCC1)C2=O

Compound: N#CC(C#N)=Cc1ccc2nc(C#Cc3ccc(N(c4ccc(C#Cc5nc6ccc(C=C(C#N)C#N)cc6s5)cc4)c4ccc(C#Cc5nc6ccc(C=C(C#N)C#N)cc6s5)cc4)cc3)sc2c1
- photoluminescence quantum yield (in Cc1ccccc1): 0.61

- photoluminescence quantum yield (in CO): 0.28
Compound: COc1cccc(-c2nc(-c3ccccc3)c(-c3ccccc3)[nH]2)c1

Compound: [O-]c1ccccc1-c1[nH+]c2c3ccccc3c3ccccc3c2n1-c1ccccc1
- photoluminescence quantum yield (in Cc1ccccc1): 0.191

- photoluminescence quantum yield (in ClCCl): 0.05
Compound: CC(C)(C)c1ccc2c(c1)c1cc(C(C)(C)C)ccc1n2-c1ccc(N(c2ccc(-c3ccc(-c4ccc(N(c5ccc(-n6c7ccc(C(C)(C)C)cc7c7cc(C(C)(C)C)ccc76)cc5)c5ccc(-n6c7ccc(C(C)(C)C)cc7c7cc(C(C)(C)C)ccc76)cc5)cc4)c4nsnc34)cc2)c2ccc(-n3c4ccc(C(C)(C)C)cc4c4cc(C(C)(C)C)ccc43)cc2)cc1

- photoluminescence quantum yield (in CC#N): 0.555
- photoluminescence quantum yield (in CCCCCC): 0.94
- photoluminescence quantum yield (in CCO): 0.9
- photoluminescence quantum yield (in CN(C)C=O): 0.77
- photoluminescence quantum yield (in ClC(Cl)Cl): 0.64
Compound: COc1ccc(-n2nc(C(=O)N3CCCC3)c(N3CCCC3)n2)cc1

- photoluminescence quantum yield (in ClCCl): 0.65
Compound: N#Cc1ccc(/C=C/c2ncc(-c3ccccc3)o2)cc1

- photoluminescence quantum yield (in C1CCOC1): 0.25
Compound: CC(C)(C)c1cc2c3c(c1)c1cc(C(C)(C)C)cc4c1n3B1c3c-2cccc3-c2cc(C(C)(C)C)cc3c5cc(C(C)(C)C)cc-4c5n1c23

Compound: Cc1cccc(C)c1
- photoluminescence quantum yield (in C1CCCCC1): 0.25

- photoluminescence quantum yield (in ClCCl): 0.85
Compound: CCOC(=O)/N=c1/oc2cc(N(CC)CC)ccc2cc1C#N

- photoluminescence quantum yield (in CO): 0.47
- photoluminescence quantum yield (in O): 0.21
Compound: CC1(C)C(/C=C/C=C/C=C/C=C2/N(c3ccc(S(=O)(=O)[O-])cc3)c3ccc(S(=O)(=O)[O-])cc3C2(C)C)=[N+](c2ccc(S(=O)(=O)[O-])cc2)c2ccc(S(=O)(=O)[O-])cc21
